According to patent publication US20110009379A1, “INDOLINONE COMPOUND” (ASTELLAS PHARMA INC., priority 2008, published 2011):
Read-outs that look alike come from different tables or passages of the source.

Columns and labels:
[1] = target: T1, human TRPA1 (Homo sapiens, UniProt O75762, K186N/R3C/R58T); assay: Measurement of TRPA1 activation activity (intracellular calcium, FLIPR, HEK293 cells stably expressing human TRPA1); assay type: cell-based; details: change of intracellular calcium concentration
T1 construct: expressed in transfected cells; pcDNA3.1(+) vector)
Procedure: 10 ng of Human brain mRNA (Clontech Co.) was treated with DNase, and then was reverse transcribed using kit for reverse transcription-polymerase chain reaction (RT-PCR) (SUPERSCRIPT First-Strand Synthesis System for RT-PCR; Invitrogen Co.) to synthesize the first strand cDNA. PCR using a hot start method was performed using the first strand cDNA as a template and Taq DNA polymerase (LA Taq DNA polymerase; TAKARA SHUZO). The PCR was performed using oligonucleotides consisting of the nucleotide sequences, represented by sequence number 2 as a sense primer and sequence number 3 as an antisense primer, in which firstly, heat denaturation was performed at 98° C. (1 minute), and then a cycle of 98° C. (15 seconds)/56° C. (30 seconds)/72° C. (5 minutes) was repeated 35 times. As a result, a DNA fragment of about 3.3 kbp was amplified.
The DNA fragment was cloned to pCR-TOPO vector using a cloning kit (TOPO XL PCR Cloning Kit; Invitrogen). The obtained plasmid DNA was digested with restriction enzymes KpnI and HindIII, and then was cloned using plasmid pcDNA 3.1(+)(Invitrogen). In this connection, the plasmid pcDNA 3.1(+) has a promoter sequence derived from cytemegalovirus, and can be used in order to express a protein in animal cells.
The nucleotide sequences of the obtained clones were analyzed using DNA sequencer (ABI3700 DNA Sequencer; Applied Biosystems) by dideoxyterminator method, and the nucleotide sequence represented by sequence number 1 was obtained. Furthermore, when these sequences were translated to amino acid sequences, the amino acid sequence represented by sequence number 1 was obtained.
After constructing the expression vector of the human TRPA1 gene, selection by G418 was performed from the HEK293 cells which temporarily expressed TRPA1 by transfection operation to obtain cells stably expressing TRPA1. The above operation was performed according to known methods (experimental medicine supplementary volume, “Cultivation Cell Experimental Methods for Molecular Biology Study” published by Toshio Kuroki, Namho Hue and Kazuhiro Chida, 1995, Yodosha).
In order to measure the change of the intracellular calcium concentration in the cells stably expressing the human TRPA1, the change of the intracellular calcium concentration when a compound to be tested was added was measured using FLIPR (Molecular Device).
In order to measure the change of the intracellular calcium concentration with FLIPR, the following pretreatment was performed. First of all, assay buffer was prepared which was for adding fluorescent pigment Fluo4-AM (DOJIN) to the cells or washing the cells just before performing FLIPR assay. To a solution (hereinafter, HBSS/HEPES solution) where 20 mL of 1M HEPES (pH 7.4; Invitrogen) was added to 1000 mL of a physiological saline buffer (Hank's Balanced Salt Solution; HBSS) (Invitrogen), was added 10 mL of a solution where 710 mg of probenecid (Sigma) was dissolved into 5 mL of 1M aqueous NaOH solution and 5 mL of HBSS/HEPES solution was further added and mixed, and the assay buffer was thus prepared. Then, 50 μg of Fluo4-AM was dissolved into 22 μL of DMSO (DOJIN), the same amount of 20% pluronic acid (Molecular Probes) was added thereto and mixed, and the mixture was added to the 10.6 mL of the assay buffer where 105 μL of fetal bovine serum was added, to prepare a fluorescent pigment solution. The medium of the cells stably expressing TRPA1 was removed, 100 μL per well of the fluorescent pigment solution was dispensed immediately, followed by cultivation in a CO2 cultivator for 1 hour, and the fluorescent pigment was soaked in the cells. The cells after cultivation were washed using the assay buffer, followed by being set in FLIPR. Furthermore, a test sample, which was added to the cells stably expressing TRPA1, was prepared by using the assay buffer, and at the same time, was set in FLIPR. […]

[2] = system: RIN14B cells; assay: Measurement of 5-HT secretion from RIN14B; assay type: cell-based; details: 20 minutes at 37° C., relative to 300 μM allyl isothiocyanate = 100%, HBSS only = 0%
Procedure: In order to investigate whether TRPA1 is related to 5-HT release, 5-HT secretion promotion from RIN14B by a compound to be tested was measured.
The RIN14B cells cultivated in a petri dish were scraped using Phosphate buffered saline (PBS) containing 1 mM EDTA, distributed into 24 well plates, and cultivated for 2 days. As a medium, a medium in which 10% fetal bovine serum (ICN), 100 U/mL penicillin, and 100 μg/mL streptomycin was added to RPMI1640 (Invitrogen), was used. The cells were washed once with HBSS (Invitrogen) and added with 0.1% BSA and 10 μM fluoxetine (TOCRIS Co.), followed by dilution with the above HBSS, the prepared compound to be tested was added to RIN14B cells, followed by cultivation at 37° C., under 5% CO2 condition for 20 minutes. After cultivation, supernatant of cells was recovered, followed by freeze preservation. The content of 5-HT in the supernatant was measured by a commercial serotonin immunoassay kit (Beckman). 5-HT release promotion activation value (%) was evaluated as a relative value when the 5-HT release promotion value by 300 μM of allyl isothiocyanate was defined as 100%, and the 5-HT release promotion value by HBSS for dilution only was defined as 0%.

[3] = system: gastric emptying of rats; assay: Activity to gastric emptying of TRPA1 agonist (phenol red, rats); assay type: in vivo; details: Rattus norvegicus, read-out: ED50 (amount which suppresses 50% of gastric emptying)
Source text: When EC cell is stimulated by content of a gastrointestinal tract, 5-HT is secreted. The secreted 5-HT promotes the secretion or motility through a 5-HT receptor present in intestinal nerve plexus or gastrointestinal smooth muscle. The secreted 5-HT is instantly taken into a cell by its specific transporter, and is metabolized by […]. Thus, while it is considerably difficult to directly measure the secreted 5-HT concentration, it has been known that gastric emptying is delayed as a physiological activity through 5-HT in rodents. In order to verify in vivo activity through 5-HT of the compound to be tested, activity to gastric emptying of rats by various TRPA1 agonists was studied.
In the experiment, male wistar rats (body weight 290 to 360 g) were used. The animals were purchased from Japan SLC (Shizuoka). The animals were allowed to drink water freely under a constitutive environment.
5 minutes after the medicine was orally administered, 0.05% phenol red solution (1.5 mL) was orally administered. After 15 minutes, rats were put painlessly to death by cervical vertebral dislocation, their stomachs were exenterated, and phenol red was eluted with 0.1M aqueous NaOH solution (5 mL) from the exenterated stomachs. 20% aqueous trichloroacetic acid solution (0.1 mL) was added to the NaOH solution (0.5 mL), followed by stirring and centrifugation at 15,000 rpm, at 4° C., for 10 minutes. 0.5M aqueous NaOH solution (0.2 mL) was added to the supernatant (0.05 mL), followed by stirring, and absorbance at 560 nm was measured using an absorption spectrometer (spectrometer spectramax M2; Molecular Devices, CA, USA).
A gastric emptying was calculated by the following calculating formula.
Gastric emptying (%)=100−(A/B)×100
A: amount of phenol red remaining in stomach
B: amount of phenol red remaining in stomach just after administering phenol red
ED50 values (amount of the compound to be tested which suppresses 50% of gastric emptying, with respect to the control animals without administering the compound to be tested) of some of the compounds of the formula (I) are shown in Table 2. In this connection, comparative compound 1 and comparative compound 2 are (3E)-1-methyl-3-(2-oxopropyridene)-1,3-dihydro-2H-indol-2-one, and (3E)-3-(2-oxopropyridene)-1-prop-2-in-1-yl-1,3-dihydro-2H-indol-2-one described in Non Patent Document 4 above, and has the following chemical structures, respectively.

[4] = system: delay of discharging time induced by loperamide in mice; assay: Loperamide induced constipation model (glass bead discharging time); assay type: in vivo; details: Mus musculus, read-out: ED50 (amount which suppresses 50% of the delay of discharging time induced by loperamide)
Procedure: It has been known that loperamide as a μ opioid receptor agonist causes convulsive contraction in intestinal tracts. Thus, a delay in the intestinal transport ability due to loperamide is thought as a constipation IBS model.
Mice (Slc:ddY, five-week old, male) fasted from the previous evening of the experiment. On the day of the experiment, the mice were acclimatized to cages for measurement for 1 hour or more, and 0.3 mg/kg of loperamide was administered subcutaneously. After 30 minutes, a compound to be tested was administered orally, ether anesthesia was applied to the mice immediately thereafter, glass beads having diameter of 3 mm were inserted to 2 cm from anus. The mice were returned to the cages for measurement, and the time from waking to discharging of the glass beads was measured. Furthermore, the compound to be tested was dissolved into 10% DMSO, 10% cremophor, and 80% distillated water.
As a result, it has been recognized that there was a delay in the beads discharging time of the loperamide administration group (vehicle group) in comparison with the loperamide non-administration group (control group).
ED50 values (amount of the compound to be tested which suppresses 50% of the delay of discharging time induced by loperamide) of some of the compounds of the formula (I) are shown in Table 3. In this connection, comparative compound 1 is the same compound as comparative compound 1 in Test Example 4.

[5] = target: Cytochrome P450(2D6) (Homo sapiens, UniProt P10635); assay: Cytochrome P450(2D6) enzyme inhibition test; assay type: in vitro ADME; details: CYP2D6, fluorescent substrate 1.5 μmol/L, 37° C., 20 minutes
Procedure: The experiment was performed in accordance with the method of Crespi et al. (Analytical Biochemistry, 248, 188-190, 1997).
As a substrate, 3-[2-(N,N-diethyl-N-methylamino)ethyl]-7-methoxy-4-methyl coumarine (1.5 μmol/L) a compound to be tested (3.1×10^−7 to 2×10^−5 M) and an enzyme (2.5×10^−8 M) were incubated at 37° C. for 20 minutes in total of […] of 100 mM phosphorous buffer (pH=7.4) including 8.2 mM NADP+, 0.41 mM glucose-6-phosphate, 0.41 mM MgCl2 and 0.4 Units/mL glucose-6-phosphate dehydrogenase, using 96 well plates. Then, 0.5 M aqueous 2-amino-2-hydroxymethyl-1,3-propandiol solution containing 80% acetonitrile was added to stop the reaction, fluorescence intensity (excitation wavelength; 390 nm, fluorescent wavelength; 460 nm) was measured with a fluorescent plate reader. An inhibition ratio was calculated with the following formula, and the test compound concentration when the inhibition ratio is 50% (IC50) was obtained.
C1: fluorescence intensity in the presence of the test compound and enzyme at know concentrations, and the substrate
C0: fluorescence intensity in the presence of the enzyme and substrate, without the test compound
B1: fluorescence intensity of blank well

[6] = male wistar rats, oral administration, versus control animals
[7] = mice (Slc:ddY, male), 0.3 mg/kg loperamide subcutaneously, compound orally

T1 sequence (O75762 whole entry R3C/R58T/K186N): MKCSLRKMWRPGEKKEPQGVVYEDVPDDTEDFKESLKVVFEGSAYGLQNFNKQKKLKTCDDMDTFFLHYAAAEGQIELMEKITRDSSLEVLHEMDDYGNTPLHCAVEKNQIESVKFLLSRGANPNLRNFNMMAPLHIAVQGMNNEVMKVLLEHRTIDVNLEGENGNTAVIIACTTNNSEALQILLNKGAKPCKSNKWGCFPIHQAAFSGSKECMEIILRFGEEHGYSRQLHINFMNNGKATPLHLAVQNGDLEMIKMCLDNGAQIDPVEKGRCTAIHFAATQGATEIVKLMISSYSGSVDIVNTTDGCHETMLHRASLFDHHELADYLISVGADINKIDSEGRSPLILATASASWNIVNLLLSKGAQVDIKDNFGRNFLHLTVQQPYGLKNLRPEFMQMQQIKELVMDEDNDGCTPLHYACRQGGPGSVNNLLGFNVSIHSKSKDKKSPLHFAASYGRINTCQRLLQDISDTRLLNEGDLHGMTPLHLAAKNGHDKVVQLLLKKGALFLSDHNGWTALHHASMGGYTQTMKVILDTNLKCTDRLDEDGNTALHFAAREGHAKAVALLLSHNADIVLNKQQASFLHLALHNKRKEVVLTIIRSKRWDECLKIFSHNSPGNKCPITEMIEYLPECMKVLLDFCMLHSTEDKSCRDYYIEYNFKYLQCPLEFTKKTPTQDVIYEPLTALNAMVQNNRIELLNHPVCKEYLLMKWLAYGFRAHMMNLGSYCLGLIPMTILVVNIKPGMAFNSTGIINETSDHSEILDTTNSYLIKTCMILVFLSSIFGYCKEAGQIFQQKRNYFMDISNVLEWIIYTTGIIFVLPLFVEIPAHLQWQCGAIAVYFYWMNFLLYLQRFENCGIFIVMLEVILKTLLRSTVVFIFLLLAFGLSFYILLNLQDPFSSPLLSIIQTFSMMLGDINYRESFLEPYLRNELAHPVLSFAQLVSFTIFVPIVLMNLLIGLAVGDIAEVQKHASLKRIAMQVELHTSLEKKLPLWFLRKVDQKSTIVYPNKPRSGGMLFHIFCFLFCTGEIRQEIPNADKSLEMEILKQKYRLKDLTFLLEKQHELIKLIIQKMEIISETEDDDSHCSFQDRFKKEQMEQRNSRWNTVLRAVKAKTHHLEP
Cytochrome P450(2D6), sequence (P10635 whole entry): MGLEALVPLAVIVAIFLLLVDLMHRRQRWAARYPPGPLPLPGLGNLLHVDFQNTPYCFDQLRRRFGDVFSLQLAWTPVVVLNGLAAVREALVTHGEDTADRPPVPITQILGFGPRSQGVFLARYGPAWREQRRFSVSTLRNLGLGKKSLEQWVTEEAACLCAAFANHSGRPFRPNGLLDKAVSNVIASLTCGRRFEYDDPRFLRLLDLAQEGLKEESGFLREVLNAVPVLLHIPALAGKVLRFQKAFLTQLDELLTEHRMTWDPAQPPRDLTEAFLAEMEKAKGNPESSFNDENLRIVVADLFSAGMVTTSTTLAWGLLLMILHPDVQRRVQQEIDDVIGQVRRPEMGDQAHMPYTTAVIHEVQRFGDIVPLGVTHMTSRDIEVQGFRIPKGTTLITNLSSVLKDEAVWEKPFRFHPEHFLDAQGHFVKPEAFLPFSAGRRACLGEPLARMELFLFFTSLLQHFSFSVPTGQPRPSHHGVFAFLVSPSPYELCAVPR

| EC50 [1] [µM] | melting point [°C] | IC50 [5] [µM] | Structure (SMILES) | 5-HT release promotion activation value [2] [%] | ED50 [3, 6] [mg/kg] | ED50 [4, 7] [mg/kg] | ED50 ([3]; po) [mg/kg] | ED50 [4] [mg/kg] |
| --- | --- | --- | --- | --- | --- | --- | --- | --- |
| 1.2 |  |  | COC(=O)c1cccc(CN2C(=O)/C(=C/C(N)=O)c3ccccc32)c1 [Example 4, methyl 3-{[(3E)-3-(2-amino-2-oxoethylidene)-2-oxo-2,3-dihydro-1H-indol-1-yl]methyl}benzoate] | 144.6 |  |  |  |  |
|  |  |  | CC(C)CN1C(=O)/C(=C/C(=O)O)c2ccccc21 [Example 13] |  | 0.98 | 0.4 |  |  |
| 4.4 | 137 to 139 | > 20 | O=C(O)/C=C1/C(=O)N(CC2CCCCC2)c2ccccc21 [Example 15, (2E)-[1-(cyclohexylmethyl)-2-oxo-1,2-dihydro-3H-indol-3-ylidene]acetic acid] | 97.4 |  |  |  |  |
| 4.45 | 177 to 179 | > 20 | O=C(O)/C=C1/C(=O)N(Cc2ccccc2)c2ccc(F)cc21 [Example 17, (2E)-(1-benzyl-5-fluoro-2-oxo-1,2-dihydro-3H-indol-3-ylidene)acetic acid] |  | 0.31 |  |  |  |
|  |  |  | O=C(O)/C=C1/C(=O)N(CC2CCC2)c2ccccc21 [Example 24] |  |  |  | 0.53 | 0.27 |
| 4.63 |  |  | CC(C)CN1C(=O)/C(=C/C(=O)O)c2cc(F)ccc21 [Example 27] | 40.0 |  |  |  |  |
| 0.61 | 142 to 144 |  | CC(C)CN1C(=O)/C(=C/C(=O)O)c2cccc(Cl)c21 [Example 31, (2E)-(7-chloro-1-isobutyl-2-oxo-1,2-dihydro-3H-indol-3-ylidene)acetic acid] |  |  | 0.24 |  |  |
| 1.16 | 166 to 168 | > 50 | O=C(O)/C=C1/C(=O)N(CC2CCC2)c2c(F)cccc21 [Example 32, (2E)-[1-(cyclobutylmethyl)-7-fluoro-2-oxo-1,2-dihydro-3H-indol-3-ylidene]acetic acid] |  | 0.21 |  |  |  |
|  |  |  | CC(=O)/C=C1/C(=O)N(C)c2ccccc21 [comparative compound 1, (3E)-1-methyl-3-(2-oxopropyridene)-1,3-dihydro-2H-indol-2-one, reference compound] |  | 2.8 | 2.5 |  |  |

| Structure (SMILES) | EC50 [1] [µM] | melting point [°C] | IC50 [5] [µM] | 5-HT release promotion activation value [2] [%] | ED50 [3, 6] [mg/kg] | ED50 [4, 7] [mg/kg] | ED50 ([3]; po) [mg/kg] | ED50 [4] [mg/kg] |
| --- | --- | --- | --- | --- | --- | --- | --- | --- |
| CCC(CC)CN1C(=O)/C(=C/C(=O)N2CCOCC2)c2cccc(F)c21 [Example 45, (3E)-1-(2-ethylbutyl)-7-fluoro-3-(2-morpholin-4-yl-2-oxoethylidene)-1,3-dihydro-2H-indol-2-one] | 1.29 | 102 to 104 | 18 |  |  |  | 0.57 |  |
